Data on 29 compounds can be found in patent US5482967A, “Condensed heterocyclic compounds, their production and use” (Takeda Chemical Industries, Ltd., priority 1992, dated 1996).

As usually defined, the IC50 is the concentration that gives 50% inhibition. A high value points to a need for much substance.

Sequence of substance P receptor (P25103 whole entry): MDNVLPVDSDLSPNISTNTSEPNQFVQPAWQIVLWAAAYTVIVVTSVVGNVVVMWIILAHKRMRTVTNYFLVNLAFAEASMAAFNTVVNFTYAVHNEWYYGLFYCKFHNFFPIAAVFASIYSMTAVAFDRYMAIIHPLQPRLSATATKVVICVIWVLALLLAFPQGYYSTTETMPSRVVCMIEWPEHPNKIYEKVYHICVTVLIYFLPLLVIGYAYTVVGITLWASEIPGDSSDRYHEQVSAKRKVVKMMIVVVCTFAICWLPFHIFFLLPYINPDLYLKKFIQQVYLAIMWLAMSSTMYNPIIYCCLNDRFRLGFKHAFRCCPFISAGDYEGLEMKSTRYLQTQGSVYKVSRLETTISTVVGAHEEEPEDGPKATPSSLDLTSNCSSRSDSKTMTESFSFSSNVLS

For this experiment, the target named is substance P receptor (Homo sapiens, UniProt P25103). The experiment can be described thus: Radioligand receptor binding inhibitory assay using receptor from human lymphoblast cells (IM-9), 125I-BHSP. Particulars: IM-9 receptor, 25° C., 30 minutes. The method, then:
The method of A. Margaret et al. [Molecular Pharmacology 42, 458 (1992)] was modified and used. The receptor was prepared from human lymphoblast cells (IM-9). IM-9 cells were grown in 175 cm^2 tissue culture flasks (100 ml×10) at a density approximately 2×10^5 /ml of RPMI 1640 with L-glutamine, 10% (V/V) heat inactivated fetal calf serum, penicillin (100 u/ml), and streptomycin (100 μg/ml) at 37° C. in 5% CO2 /95% air for 3 days. IM-9 cells were obtained by centrifugation at 500×g for 5 minutes at 5° C. The pellet obtained was washed once with phosphate buffer (Flow Laboratories, CAT No. 28-103-05), homogenized using Polytron homogenizer (Kinematika, Germany) in 30 ml of 50 mM Tris-HCl buffer containing 120 mM NaCl, 5 mM KCl, 2 μg/ml phenylmethyl sulfonyl fluoride, and 1 mM ethylenediamine tetra-acetic acid and then centrifuged at 40,000×g for 20 minutes. The residue was washed twice with 30 ml of buffer described above, and preserved frozen (-80° C.).
The above specimen was suspended in a reaction buffer (50 mM Tris-HCl buffer (pH 7.4), 0.02% bovine serum albumin, 1 mM phenylmethylsulfonyl fluoride, 2 μg/ml chymostatin, 40 μg/ml bacitracin, 3 mM manganese chloride) at a protein concentration of 1.5 mg/ml and a 100 μl portion of the suspension was used in the reaction. After addition of the sample and 125I-BHSP (0.46 KBq), the reaction was conducted in 0.2 ml of reaction buffer at 25° C. for 30 minutes. The amount of nonspecific binding was determined by adding substance P at a final concentration of 2×10^-6 M. After the reaction, using a cell harvester (290PHD, Cambridge Technology, Inc., England), rapid filtration was carried out through a glass filter (GF/B, Whatman, U.S.A.) to stop the reaction. After washing three times with 250 μl of 50 mM Tris-HCl buffer (pH 7.4) containing 0.02% bovine serum albumin, the radioactivity remaining on the filter was measured with a gamma counter. Before use, the filter was immersed in 0.1% polyethyleneimine for 24 hours and air-dried.
The compound `COc1ccccc1CNCc1c(-c2ccccc2)c2cc(C)c(C)cc2c(=O)n1C` [Example 190, 1,2-Dihydro-N-(2-methoxybenzyl)-2,6,7-trimethyl-1-oxo-4-phenyl-3-isoquinolinemethylamine] gave an IC50 of 0.013 µM. For the compound `CN(Cc1cc(C(F)(F)F)cc(C(F)(F)F)c1)C(=O)c1c(-c2ccccc2C(F)(F)F)c2ccccc2c(=O)n1C` [Example 182, N-[3,5-Bis(trifluoromethyl)benzyl]-1,2-dihydro-N,2-dimethyl-1-oxo-4-(2-trifluoromethylphenyl)-3-isoquinolinecarboxamide], the IC50 worked out at 0.002 µM. This IC50 lies about 6.5-fold lower than the previous one. The figure for `Cc1ccccc1-c1c(C(=O)N(C)Cc2cc(C(F)(F)F)cc(C(F)(F)F)c2)c(=O)oc2ccc(Cl)cc12` [Example 248] is 0.016 µM. In turn, `Cn1c(C(=O)NCc2ccc(C(F)(F)F)cc2)c(-c2ccccc2)c2ccccc2c1=O` [Example 171, 1,2-Dihydro-2-methyl-1-oxo-4-phenyl-N-[4-(trifluoromethyl)benzyl]-3-isoquinolinecarboxamide] displayed an IC50 of 0.02 µM. This IC50 and that of the compound before are within 1.5-fold of each other. The figure for `COc1cccc(CNC(=O)c2c(-c3ccccc3)c3cc(C)c(C)cc3c(=O)n2C)c1` [Example 128, 1,2-Dihydro-N-(3-methoxybenzyl)-2,6,7-trimethyl-1-oxo-4-phenyl-3-isoquinolinecarboxamide] is 0.088 µM. As to `CN(Cc1cc(C(F)(F)F)cc(C(F)(F)F)c1)C(=O)c1c(-c2ccccc2)c2cc(Cl)ccc2oc1=O` [Example 249, N-[3,5-Bis(trifluoromethyl)benzyl]-6-chloro-N-methyl-2-oxo-4-phenyl-2H-1-benzopyran-3-carboxamide], the IC50 worked out at 0.017 µM. Against the preceding compound, the IC50 is about 5.2-fold lower.

`CN(Cc1cc(C(F)(F)F)cc(C(F)(F)F)c1)C(=O)[C@H]1[C@@H](c2ccccc2)c2ccccc2C(=O)N1C` (relative stereo) [Example 279, 3,4-cis-N-[3,5-Bis(trifluoromethyl)benzyl]-1,2,3,4-tetrahydro-N-2-dimethyl-1-oxo-4-phenyl-3-isoquinolinecarboxamide]: the IC50 worked out at 0.034 µM. Compound `Cc1cc2c(-c3ccccc3)c(C(=O)N(C)Cc3cc(C(F)(F)F)cc(C(F)(F)F)c3)n(C)c(=O)c2cc1C` [Example 112, N-[3,5-Bis(trifluoromethyl)benzyl]-1,2-dihydro-N,2,6,7-tetramethyl-1-oxo-4-phenyl-3-isoquinolinecarboxamide] had an IC50 of 0.0084 µM. In turn, `CN(Cc1cc(C(F)(F)F)cc(C(F)(F)F)c1)C(=O)c1oc(=O)c2ccc(Cl)cc2c1-c1ccccc1` [Example 242, N-[3,5-Bis(trifluoromethyl)benzyl]-6-chloro-N-methyl-1-oxo-4-phenyl-1H-2-benzopyran-3-carboxamide] registered an IC50 of 0.0086 µM. The IC50 values of the last two compounds are within 1.5-fold of each other. Consider `COc1ccccc1CNC(=O)c1c(-c2ccccc2)c2cc(C)c(C)cc2c(=O)n1C` [Example 110, 1,2-Dihydro-N-(2-methoxybenzyl)-2,6,7-trimethyl-1-oxo-4-phenyl-3-isoquinolinecarboxamide], for which the IC50 came to 0.09 µM. Compared with the last compound, the IC50 is about 10-fold higher. Compound `COc1ccccc1CN(C)C(=O)c1c(-c2ccccc2C)c2ccccc2c(=O)n1C` [Example 104, 1,2-Dihydro-N-(2-methoxybenzyl)-N,2-dimethyl-4-(2-methylphenyl)-1-oxo-3-isoquinolinecarboxamide] returned an IC50 of 0.016 µM. In the case of `CN(Cc1cc(C(F)(F)F)cc(C(F)(F)F)c1)C(=O)c1oc(=O)c2ccccc2c1-c1ccccc1` [Example 243, N-[3,5-Bis(trifluoromethyl)benzyl]-N-methyl-1-oxo-4-phenyl-1H-2-benzopyran-3-carboxamide], the IC50 was 0.0009 µM.

Compound `CNc1nc(C(=O)N(C)Cc2cc(C(F)(F)F)cc(C(F)(F)F)c2)c(-c2ccccc2)c2ccccc12` [Example 278, N-[3,5-Bis(trifluoromethyl)benzyl]-N-methyl-1-methylamino-4-phenyl-3-isoquinolinecarboxamide] came in with a 50% inhibitory concentration (IC50) of 0.01 µM. With `Cn1c(C(=O)NCc2cc(C(F)(F)F)cc(C(F)(F)F)c2)c(-c2ccccc2)c2ccccc2c1=O` [Example 156, N-[3,5-Bis(trifluoromethyl)benzyl]-1,2-dihydro-2-methyl-1-oxo-4-phenyl-3-isoquinolinecarboxamide] the figure was 0.0061 µM. `Cc1cc(C)cc(CNCc2c(-c3ccccc3)c3cc(C)c(C)cc3c(=O)n2C)c1` [Example 191, N-(3,5-Dimethylbenzyl)-1,2-dihydro-2,6,7-trimethyl-1-oxo-4-phenyl-3-isoquinolinemethylamine]: the IC50 came out at 0.028 µM. The compound `Cc1cc2c(-c3ccccc3)c(C(=O)NCc3cccc(Cl)c3)n(C)c(=O)c2cc1C` [Example 130, N-(3-Chlorobenzyl)-1,2-dihydro-2,6,7-trimethyl-1-oxo-4-phenyl-3-isoquinolinecarboxamide] showed an IC50 of 0.038 µM. `Cc1nc2ccccc2c(-c2ccccc2)c1C(=O)NCc1cc(C(F)(F)F)cc(C(F)(F)F)c1` [Example 266, N-[3,5-Bis(trifluoromethyl)benzyl]-2-methyl-4-phenyl-3-quinolinecarboxamide]: the IC50 stood at 0.0082 µM.

As to `COc1ccc(CNC(=O)c2c(-c3ccccc3)c3cc(C)c(C)cc3c(=O)n2C)cc1` [Example 109, 1,2-Dihydro-N-(4-methoxybenzyl)-2,6,7-trimethyl-1-oxo-4-phenyl-3-isoquinolinecarboxamide], the IC50 amounted to 0.05 µM.

The compound `Cn1c(=O)c(C(=O)NCc2cc(C(F)(F)F)cc(C(F)(F)F)c2)c(-c2ccccc2Cl)c2ccccc21` [Example 261, N-[3,5-Bis(trifluoromethyl)benzyl]-4-(2-chlorophenyl)-1,2-dihydro-1-methyl-2-oxo-3-quinolinecarboxamide] yielded an IC50 of 0.063 µM.

The compound `Cc1ccccc1-c1c(C(=O)N(C)Cc2ccccc2)n(C)c(=O)c2ccccc12` [Example 103, N-Benzyl-1,2-dihydro-N,2-dimethyl-4-(2-methylphenyl)-1-oxo-3-isoquinolinecarboxamide] returned an IC50 of 0.034 µM. The figure for `CN(Cc1cc(C(F)(F)F)cc(C(F)(F)F)c1)C(=O)c1nc(Cl)c2ccccc2c1-c1ccc(F)cc1` [Example 273, N-[3,5-Bis(trifluoromethyl)benzyl]-1-chloro-4-(4-fluorophenyl)-N-methyl-3-isoquinolinecarboxamide] is 0.002 µM. The compound `CN(Cc1cc(C(F)(F)F)cc(C(F)(F)F)c1)C(=O)c1[nH]c(=O)c2ccccc2c1-c1ccc(F)cc1` [Example 178, N-[3,5-Bis(trifluoromethyl)benzyl]-4-(4-fluorophenyl)-1,2-dihydro-N-methyl-1-oxo-3-isoquinolinecarboxamide] had an IC50 of 0.00014 µM. In the case of `Cn1c(C(=O)NCc2cc(C(F)(F)F)cc(C(F)(F)F)c2)c(-c2ccccc2)c2c(c1=O)CCCC2` [Example 185, N-[3,5-Bis(trifluoromethyl)benzyl]-1,2,5,6,7,8-hexahydro-2-methyl-1-oxo-4-phenyl-3-isoquinolinecarboxamide], the IC50 is 0.032 µM.

In turn, `Cn1c(C(=O)NCc2cc(C(F)(F)F)cc(C(F)(F)F)c2)c(-c2ccccc2C(F)(F)F)c2ccccc2c1=O` [Example 181, N-[3,5-Bis(trifluoromethyl)benzyl]-1,2-dihydro-2-methyl-1-oxo-4-(2-trifluoromethylphenyl)-3-isoquinolinecarboxamide] displayed an IC50 of 0.031 µM. The compound `COc1ccccc1CN(C)C(=O)c1c(-c2ccccc2)c2ccccc2c(=O)n1C` [Example 108, 1,2-Dihydro-N-(2-methoxybenzyl)-N,2-dimethyl-1-oxo-4-phenyl-3-isoquinolinecarboxamide] had an IC50 of 0.03 µM. This IC50 and that of the compound before are within 1.5-fold of each other.

The compound `CN(Cc1cc(C(F)(F)F)cc(C(F)(F)F)c1)C(=O)c1c(Cl)nc2ccccc2c1-c1ccccc1` [Example 269, N-[3,5-Bis(trifluoromethyl)benzyl]-2-chloro-N-methyl-4-phenyl-3-quinolinecarboxamide] came in with an IC50 of 0.0014 µM.

As to `Cc1ccccc1-c1c(C(=O)N(C)Cc2cc(C(F)(F)F)cc(C(F)(F)F)c2)c(=O)oc2ccccc12` [Example 254, N-[3,5-Bis(trifluoromethyl)benzyl]-N-methyl-4-(2-methylphenyl)-2-oxo-2H-1-benzopyran-3-carboxamide], the 50% inhibitory concentration (IC50) amounted to 0.00036 µM. In the case of `CN(Cc1cc(C(F)(F)F)cc(C(F)(F)F)c1)C(=O)c1[nH]c(=O)c2ccc(Cl)cc2c1-c1ccccc1` [Example 177, N-[3,5-Bis(trifluoromethyl)benzyl]-6-chloro-1,2-dihydro-N-methyl-1-oxo-4-phenyl-3-isoquinolinecarboxamide], the IC50 amounted to 0.013 µM. The figure for `COc1ccccc1-c1c(C(=O)N(C)Cc2cc(C(F)(F)F)cc(C(F)(F)F)c2)n(C)c(=O)c2ccccc12` [Example 159, N-[3,5-Bis(trifluoromethyl)benzyl]-1,2-dihydro-4-(2-methoxyphenyl)-N,2-dimethyl-1-oxo-3-isoquinolinecarboxamide] is 0.012 µM.
